Laboratory results as given in ChEMBL document CHEMBL1201862, “PubChem BioAssay data set” (2004).
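Briefly, cells in 96-well plates were exposed to five compound concentrations for 48 h, and endpoints were estimated by linear interpolation. Abbreviation: GI50, concentration required for 50% inhibition of growth.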 Active and inactive are the calls of the source. Cut-off read from the data, not from the text of the source: active = GI50 up to about 1.1 µM and inactive = higher.

Legend:
Assay in all cases: NCI tumour cell line growth inhibition, 48 h
A498 = system: A498
A549 = system: A549
COLO 205 = system: COLO 205
EKVX = system: EKVX
HCT-116 = system: HCT-116
HOP-92 = system: HOP-92
HT-29 = system: HT-29
K562 = system: K562
NCI/ADR-RES = system: NCI/ADR-RES
OVCAR-3 = system: OVCAR-3
RPMI-8226 = system: RPMI-8226
RXF 393 = system: RXF 393
SF-268 = system: SF-268
SF-295 = system: SF-295
SK-MEL-2 = system: SK-MEL-2
SK-MEL-5 = system: SK-MEL-5
SNB-19 = system: SNB-19
SR = system: SR
SW-620 = system: SW-620
T47D = system: T47D

SMILES	GI50 (A498)	GI50 (A549)	GI50 (COLO 205)	GI50 (EKVX)	GI50 (HCT-116)	GI50 (HOP-92)	GI50 (HT-29)	GI50 (K562)	GI50 (NCI/ADR-RES)	GI50 (OVCAR-3)	GI50 (RPMI-8226)	GI50 (RXF 393)	GI50 (SF-268)	GI50 (SF-295)	GI50 (SK-MEL-2)	GI50 (SK-MEL-5)	GI50 (SNB-19)	GI50 (SR)	GI50 (SW-620)	GI50 (T47D)
COc1ccc(NCc2c(O)ccc3ccccc23)cc1	24.6 µM (inactive)	61.4 µM (inactive)	22.8 µM (inactive)	18.9 µM (inactive)	33.8 µM (inactive)	16.1 µM (inactive)	21.6 µM (inactive)	10.7 µM (inactive)	40.5 µM (inactive)	27.2 µM (inactive)	24.7 µM (inactive)	16.5 µM (inactive)	19.9 µM (inactive)	43 µM (inactive)	64.1 µM (inactive)	12.4 µM (inactive)	> 100 µM (inactive)	17.1 µM (inactive)	21.4 µM (inactive)	17.4 µM (inactive)
Oc1ncc(Cl)c(O)n1	> 100 µM (inactive)	> 100 µM (inactive)	> 100 µM (inactive)	> 100 µM (inactive)	> 100 µM (inactive)	> 100 µM (inactive)	> 100 µM (inactive)	> 100 µM (inactive)	> 100 µM (inactive)	> 100 µM (inactive)	> 100 µM (inactive)	> 100 µM (inactive)	> 100 µM (inactive)	> 100 µM (inactive)	> 100 µM (inactive)	> 100 µM (inactive)	> 100 µM (inactive)	> 100 µM (inactive)	> 100 µM (inactive)	> 100 µM (inactive)
O=C1N/C(=N/N=C\C(O)C(O)C(O)C(O)CO)N/C1=C\c1ccc(Cl)cc1 (stereo not drawn)	11.5 µM (inactive)	27.2 µM (inactive)	8 µM (inactive)	12.1 µM (inactive)	9.59 µM (inactive)	1.8 µM (inactive)	17.4 µM (inactive)	10.6 µM (inactive)	> 100 µM (inactive)	2.18 µM (inactive)	> 62.8 µM (inactive)	7.19 µM (inactive)	3.61 µM (inactive)	9.23 µM (inactive)	7.06 µM (inactive)	17 µM (inactive)	2.73 µM (inactive)	4.04 µM (inactive)	8.87 µM (inactive)	3.25 µM (inactive)
CC1=C(C(N)=O)C(c2ccncc2)C(C#N)=C2SCC(=O)N12 (stereo not drawn)	> 100 µM (inactive)	> 100 µM (inactive)	> 100 µM (inactive)	> 100 µM (inactive)	> 100 µM (inactive)	> 100 µM (inactive)	> 100 µM (inactive)	> 100 µM (inactive)	> 100 µM (inactive)	> 100 µM (inactive)	> 100 µM (inactive)	> 100 µM (inactive)	> 100 µM (inactive)	> 100 µM (inactive)	> 100 µM (inactive)	> 100 µM (inactive)	> 100 µM (inactive)	> 100 µM (inactive)	> 100 µM (inactive)	> 100 µM (inactive)
Cc1cc(O)c2c(c1)C(=O)C(c1c(C)cc3c(c1O)C(=O)C1OC1C3=O)=CC2=O (stereo not drawn)	6.4 µM (inactive)	17.7 µM (inactive)	0.561 µM (active)	3.15 µM (inactive)	1.71 µM (inactive)	0.839 µM (active)	3.36 µM (inactive)	0.339 µM (active)	2.77 µM (inactive)	1.83 µM (inactive)	0.357 µM (active)	1.35 µM (inactive)	7.24 µM (inactive)	16.5 µM (inactive)	10.7 µM (inactive)	6.34 µM (inactive)	21.5 µM (inactive)	0.327 µM (active)	1.42 µM (inactive)	1.98 µM (inactive)
C=C1C(=O)OC2/C=C(\CO)C3OC3C3OC3(C)CC(OC(=O)/C(=C/C)COC(C)=O)C12 (stereo not drawn)	13.8 µM (inactive)	18.6 µM (inactive)	1.63 µM (inactive)	3.81 µM (inactive)	1.55 µM (inactive)	2.01 µM (inactive)	3.89 µM (inactive)	16 µM (inactive)	12.1 µM (inactive)	3.52 µM (inactive)	> 100 µM (inactive)	1.71 µM (inactive)	11.2 µM (inactive)	10 µM (inactive)	3.31 µM (inactive)	8.13 µM (inactive)	15.1 µM (inactive)	2.09 µM (inactive)	1.35 µM (inactive)	3.01 µM (inactive)
COC(=O)c1ccccc1CC(Cc1ccc2c(c1)CCC2)C(=O)OC (stereo not drawn)	> 100 µM (inactive)	> 100 µM (inactive)	> 100 µM (inactive)	> 100 µM (inactive)	49.1 µM (inactive)	> 100 µM (inactive)	50.6 µM (inactive)	95.1 µM (inactive)	> 100 µM (inactive)	70 µM (inactive)	> 100 µM (inactive)	> 100 µM (inactive)	> 100 µM (inactive)	> 100 µM (inactive)	> 100 µM (inactive)	32.4 µM (inactive)	> 100 µM (inactive)	36.9 µM (inactive)	> 100 µM (inactive)	> 100 µM (inactive)
CC(=O)C(O)N1C(=O)C=CC1=O (stereo not drawn)	18.1 µM (inactive)	–	1.56 µM (inactive)	6.5 µM (inactive)	5.61 µM (inactive)	2.07 µM (inactive)	16.4 µM (inactive)	> 25 µM (inactive)	13.2 µM (inactive)	17.6 µM (inactive)	2.26 µM (inactive)	2.13 µM (inactive)	7.05 µM (inactive)	18.3 µM (inactive)	17.5 µM (inactive)	17.8 µM (inactive)	17.6 µM (inactive)	1.99 µM (inactive)	1.71 µM (inactive)	> 25 µM (inactive)
O=C(/C=C1\Sc2ccccc2N=C1CC(=O)c1ccccc1)c1ccccc1	31.8 µM (inactive)	5.33 µM (inactive)	10.3 µM (inactive)	6.17 µM (inactive)	4.9 µM (inactive)	3.35 µM (inactive)	8.49 µM (inactive)	3.79 µM (inactive)	4.02 µM (inactive)	10.7 µM (inactive)	4.65 µM (inactive)	26.5 µM (inactive)	6.4 µM (inactive)	3.64 µM (inactive)	17.3 µM (inactive)	2.61 µM (inactive)	69.7 µM (inactive)	1.4 µM (inactive)	3.97 µM (inactive)	6.98 µM (inactive)
S=c1sc2nc(Cl)nc(Cl)c2s1	18 µM (inactive)	19 µM (inactive)	7.18 µM (inactive)	16.9 µM (inactive)	11.9 µM (inactive)	5.24 µM (inactive)	8.24 µM (inactive)	4.24 µM (inactive)	11 µM (inactive)	10.3 µM (inactive)	1.68 µM (inactive)	12 µM (inactive)	14.8 µM (inactive)	16.7 µM (inactive)	11.4 µM (inactive)	8.73 µM (inactive)	17.9 µM (inactive)	1.04 µM (active)	6.85 µM (inactive)	7.06 µM (inactive)
Cc1c2ncccc2cc2oc3ccccc3c(=O)c12	81.5 µM (inactive)	12.9 µM (inactive)	31.2 µM (inactive)	11.1 µM (inactive)	31.3 µM (inactive)	28.3 µM (inactive)	35.6 µM (inactive)	24.9 µM (inactive)	21.4 µM (inactive)	33.9 µM (inactive)	> 100 µM (inactive)	61.4 µM (inactive)	41.7 µM (inactive)	31.6 µM (inactive)	> 100 µM (inactive)	18.2 µM (inactive)	–	41.2 µM (inactive)	33.5 µM (inactive)	18.1 µM (inactive)
CC1OC(OC2C(O[C@@H]3C[C@@H]4CC[C@@H]5[C@H](CC[C@]6(C)C7C(C[C@@H]56)O[C@]5(CC[C@@H](C)CO5)[C@H]7C)[C@@]4(C)C[C@H]3O)OC(CO)C(O)C2O)C(O)C(O)C1O (stereo partly drawn)	2.3 µM (inactive)	1.86 µM (inactive)	1.85 µM (inactive)	1.92 µM (inactive)	1.81 µM (inactive)	2.8 µM (inactive)	1.62 µM (inactive)	1.89 µM (inactive)	1.94 µM (inactive)	1.8 µM (inactive)	2.28 µM (inactive)	2.15 µM (inactive)	1.91 µM (inactive)	1.83 µM (inactive)	1.78 µM (inactive)	2.09 µM (inactive)	2.41 µM (inactive)	2.16 µM (inactive)	1.93 µM (inactive)	2.14 µM (inactive)
O=C(N/N=C/c1ccc2c(c1)OCO2)Nc1ccccc1Cl	1.95 µM (inactive)	3.33 µM (inactive)	0.957 µM (active)	8.07 µM (inactive)	0.861 µM (active)	6.24 µM (inactive)	0.8 µM (active)	0.327 µM (active)	0.335 µM (active)	0.391 µM (active)	1.48 µM (inactive)	1.57 µM (inactive)	3.76 µM (inactive)	0.47 µM (active)	0.556 µM (active)	1.35 µM (inactive)	3.7 µM (inactive)	0.22 µM (active)	0.708 µM (active)	2.08 µM (inactive)
COC(=O)CNC(=O)CCC(C)[C@H]1CCC2C3C(C[C@H](OC(C)=O)[C@@]21C)[C@@]1(C)CCC2(C[C@H]1C[C@H]3OC(C)=O)OOC1(CCCCC1)OO2 (stereo partly drawn)	17.2 µM (inactive)	1.72 µM (inactive)	1.91 µM (inactive)	2.18 µM (inactive)	2.73 µM (inactive)	1.08 µM (active)	2.69 µM (inactive)	3.14 µM (inactive)	2.17 µM (inactive)	2.04 µM (inactive)	1.75 µM (inactive)	1.99 µM (inactive)	1.75 µM (inactive)	6.08 µM (inactive)	2.24 µM (inactive)	2.63 µM (inactive)	4.63 µM (inactive)	1.24 µM (inactive)	2.24 µM (inactive)	2.58 µM (inactive)
